Marks after values point to notes of the source that are not given here.
Key:
[1] = system: MDA-MB-231 breast adenocarcinoma; assay: In vivo growth of MDA-MB-231 breast cancer xenografts; parameters: species or system human; details: MDA-MB-231, day 35
NORA = assay: Plasma NORA levels (ELISA) in melanoma-bearing mice; assay type: in vivo; details: melanoma-bearing mice treated vs not treated with Pter
From the text: Measurement of ACTH, Corticosterone, and NORA Levels.
Plasma levels of ACTH (Calbiotech, Inc., Spring Valley, Calif.), corticosterone (Kamiyama Biomedical Co., Seattle, Wash.), and NORA (IBL, Hamburg, Germany) were quantified by ELISA according to the instructions of the suppliers.

[2] = system: A549 cells isolated from tumor-bearing mice; assay: Chemosensitization of cultured A549 cells isolated from xenografts; assay type: cell-based, human; details: 72 h-cultured, PL 0.5 μM, Chemo 1 μM VRB and 15 μM cisPt, Pter = in vivo pretreatment
Description: FIGS. 18-25. Effect of piperlongumine and I-BET762, as GSH depleting and chemosensitizing agents, in in vitro growing human melanoma, pancreatic, breast, lung, liver, prostate, ovarian, and colorectal cancer cells. Cancer cells, isolated from Pter-treated tumor-bearing mice, were cultured as indicated under Methods. Chemotherapy (0.25 μM PAC.PBP in A2058 melanoma and MDA-MB-231 breast carcinoma cells; 0.125 μM PAC.PBP and 25 μM GTB in AsPC-1 pancreatic cancer cells; 1 μM VRB and 15 μM cisPt in A459 lung carcinoma cells; 0.15 μM DXR in HepG2 hepatocellular carcinoma cells; 15 nM DCT in PC-3 prostate carcinoma cells; 0.15 μM PAC.PBP and 25 μM CarboPt in SK-OV-3 ovarian carcinoma cells; 3 μM 5-FU, 1 μM FA and 0.6 μM IRI in HT-29 colorectal carcinoma cells) was added to the cultured flasks 24 h after seeding. […]
Human A2058, MeWo and MelJuso melanoma cells, and mouse AtT-20 pituitary corticotroph tumor cells were from the American Type Culture Collection (ATCC). […] Cell numbers were determined using a Coulter Counter (Coulter Electronic Inc., Miami, Fla.). […] Cellular viability was assessed as previously reported (Mena, S. et al. Clin Cancer Res 13, 2658-2666 (2007)), by measuring trypan blue exclusion and leakage of lactate dehydrogenase activity. […]

COc1cc(/C=C/c2ccc(O)cc2)cc(OC)c1 [Pter, trans-3,5-dimethoxy-4′-hydroxystilbene]
Tumor vol. [1]: 266 ± 89* mm^3
NORA levels in plasma (NORA): not significantly different
Viable cells [2]: 1317 ± 255 ×10^6

Source: patent US11179348B2, “Combination comprising pterostilbene for the treatment of cancer” (FUNDACIÓN UNIVERSIDAD CATÓLICA DE VALENCIA SAN VICENTE …, priority 2015, dated 2021)
